Measured values reported in US10613078B2, “Assays for measuring cardiotoxicity” (NCARDIA B.V., priority 2015, dated 2020).

System: human stem-cell derived cardiomyocytes
Assay: Promega ATP assay (CellTiter-Glo luminescent cell viability) on cardiomyocytes
Type: cell-based
From the text: Cells were dissociated at day 21 using 10× TrypLE select and replated at 20.000 cells/well in white 96-well plates (Corning 655098) and treated according to the protocol shown in FIG. 1. Alternatively, Pluricyte Cardiomyocytes were obtained from Pluriomics (Leiden, The Netherlands). The cryopreserved cells were recovered in maintained in Pluricyte Medium (Pluriomics, Leiden, The Netherlands) and thereafter cultivated on medium without glucose and/or galactose but comprising fatty acids and carnitine as described below. […]
After two days, an ATP viability assay was performed. ATP values were measured using the Promega Cell titer Glo luminescent cell viability kit according to manufacturers instructions. […] Available ATP is measured via an ATP dependent conversion of Luciferin by a recombinant Luciferase, which produces oxyluciferin and light. The amount of luminescence generated is therefore directly proportional to the amount of ATP in the cells.

In the case of `COc1cccc2c1C(=O)c1c(O)c3c(c(O)c1C2=O)C[C@@](O)(C(=O)CO)C[C@@H]3O[C@H]1C[C@H](N)[C@H](O)[C@H](C)O1` [doxorubicin], the “effect on ATP levels” value (cardiomyocytes cultivated in the presence of glucose, various concentrations of doxorubicin, n=6 (FIG. 2)) is reported as “shows a clear effect on ATP levels” and the “mitochondrial toxicity (ATP levels), CM versus CM− medium” value (cells grown in CM (with glucose) compared with CM− (without glucose and galactose, with fatty acids and carnitine) (FIG. 3, lower panel)) is reported as “more pronounced in cells cultured in CM−”.
